Test [1] addresses T1, GABAA receptor α1β2γ2 (Homo sapiens, UniProt P14867+P18507).
T1 construct: expressed in transfected cells; host or cells: Xenopus laevis oocytes injected with cRNA
Kind of test: Two-electrode voltage-clamp potentiation of GABA EC10 current in Xenopus oocytes, GABAA1. The following applies: percentage potentiation of GABA EC10 current divided by that of diazepam. The format is cell-based. The gist of the method: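 Human GABAA receptors expressed in Xenopus oocytes by cRNA injection (α:β:γ molar ratio ~1:1:10 for α1β2γ2, 1:1:1 for α2β3γ2), recorded 2-10 days later by two-electrode voltage clamp at −60 mV in ND-96, pH 7.5. Modulator preapplied 30 s before GABA at per-oocyte EC10. Peak-current percent potentiation over GABA alone, normalised to diazepam.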

Test [2] deals with T2, GABAA receptor α2β3γ2 (Homo sapiens, UniProt P18507+P47869).
T2 construct: expressed in transfected cells; host or cells: Xenopus laevis oocytes injected with cRNA
The test can be described thus: Two-electrode voltage-clamp potentiation of GABA EC10 current in Xenopus oocytes, GABAA2. The format is cell-based. The following applies: percentage potentiation of GABA EC10 current divided by that of diazepam. The procedure:
GABAA receptors were heterologously expressed in Xenopus oocytes by injecting cRNA corresponding to human α1, α2, α3, α5, β2, P3 and γ2 subunits of the GABAA receptor genes. The specific subunit combinations (subtypes) were as follows: α1β2γ2, α2β3γ2, α3β3γ2, and α5β3γ2. The EC10 of GABA is approximated for each cell. Stability of GABA-mediated (EC10) current is established. Modulatory effect of test compound is determined and compared across subtypes. […] Thus, the assay can characterize modulatory effects and determine subtype selectivity of test compounds on major subtypes of GABAA receptors.
Xenopus laevis frogs (Xenopus I, Kalamazoo, Mich.) were anesthetized using 0.15% tricaine. Surgically removed ovarian lobes were teased out in OR2 solution (82 NaCl, 2.5 KCl, 5 HEPES, 1.5 NaH2PO4, 1 MgCl2, 0.1 EDTA, in mM, pH 7.4). The oocytes were defolliculated by incubation in 25 mL OR2 containing 0.2% collagenase 1A (SIGMA) two times for about 60 minutes on a platform shaker and stored in Leibovitz's L-15 medium. Oocytes were injected the following day in 0.5× Leibovitz's L-15 medium containing […] gentamycin, 10 units/ml penicillin, and […] streptomycin.
Capped cRNAs from the linearized vectors containing human α1, β2 and γ2 subunits of the GABAA receptor genes were mixed in ratio of […]. Oocytes were injected with 25-50 nL of mixed RNA with an appx molar ratio for α1, β2, and γ2 as 1:1:10. Oocyte recordings were done 2-10 days after injection. The same methods apply to subtypes derived from α2β3γ2, α3β3γ2, and α5β3γ2, except for 1:1:1 ratio was used for α, β, and γ subunits.
All measurements were done in a medium containing ND-96 (96 NaCl, 2 KCl, 1.8 CaCl2.2H2O, 1 MgCl2.6H2O, 5 HEPES, in mM, pH 7.5). Two-electrode voltage-clamp recording was carried out using OpusXpress amplifier (Axon Instruments, Foster City, Calif.), which allows simultaneous recording from 8 oocytes. Oocytes were impaled with two electrodes of 1-2 MΩ tip resistance when filled with 3M KCl. Recordings were begun when membrane potential became stable at potentials negative to −50-−60 mV. Membrane potential was held at −60 mV. […] The concentration of GABA corresponded to the EC10 value calculated for each oocyte. The modulator pulses started 30 s before the GABA pulse so as to allow preincubation with the modulator. A set of 3 pulses with just GABA without modulator was given prior to the modulator-containing pulses to define the baseline GABA response. Two oocytes per each experiment were dedicated to observe the effect of diazepam on GABA response to ensure the presence of γ2 subunit in the GABAA pentameric complex, which imparts diazepam sensitivity to the complex.
Current amplitude (i) was measured from baseline to peak using Clampfit (Axon Inst., Foster City, Calif.). Potentiation was calculated as percent change from the baseline GABA current flux 100×(imod/icontrol)−1) where imod=current mediated by modulator+GABA and icontrol=current mediated by GABA alone. […] Similarly, a value of −50% potentiation means the presence of modulator caused a 50% decrease in the control current. Various other data shown here were fitted and plotted using GraphPad Prism (GraphPad Software, Inc. San Diego, Calif.). The percentage potentiation was converted to relative potentiation by dividing it with percentage potentiation value obtained from the same assay with diazepam as a control.

Test [3] concerns the target T3, GABAA2 receptors (α2, β3, γ2 receptor subunits transfected into Sf9 cells) (Homo sapiens, UniProt P18507+P47869).
T3 construct: host or cells: Sf9 cells (membranes)
The test can be described thus: GABAA2 Binding Method ([3H]-Flunitrazepam displacement). The following applies: [3H]-Flunitrazepam ~2 nM, α2β3γ2 Sf9 membranes, 1 hr at 4° C. The gist of the method:
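Membranes from Sf9 cells expressing α2β3γ2 GABAA receptors incubated with ~2 nM (final) [3H]-flunitrazepam and test compound 1 h at 4 °C, then filtered on GF/B plates with cold-buffer washes. Flumazenil-defined controls; percent of control, IC50 and Ki calculated.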

The mark [4] stands for this setting: listed as 9-Amino-2-cyclobutyl-5-((P)-2-fluoro-6-methoxyphenyl)-2,3-dihydro-pyrrolo[3,4-b].
Where [5] appears, read: listed as 9-Amino-2-cyclobutyl-5-((M)-2-fluoro-6-methoxyphenyl)-2,3-dihydro-pyrrolo[3,4-b].

pKi: −log10 of the molar value.

T3 sequence (P47869 29-451): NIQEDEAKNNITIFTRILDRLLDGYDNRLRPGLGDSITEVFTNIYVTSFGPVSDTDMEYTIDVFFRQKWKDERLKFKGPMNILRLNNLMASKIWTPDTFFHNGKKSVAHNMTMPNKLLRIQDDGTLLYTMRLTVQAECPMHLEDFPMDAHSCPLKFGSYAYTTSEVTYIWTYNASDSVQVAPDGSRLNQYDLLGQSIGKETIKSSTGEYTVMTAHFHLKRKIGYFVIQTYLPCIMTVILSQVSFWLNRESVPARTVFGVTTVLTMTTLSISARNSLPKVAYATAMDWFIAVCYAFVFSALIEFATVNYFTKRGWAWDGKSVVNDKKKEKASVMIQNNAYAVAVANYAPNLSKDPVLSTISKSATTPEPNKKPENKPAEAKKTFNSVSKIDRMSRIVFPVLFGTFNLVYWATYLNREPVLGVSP
T3 sequence (P28472 26-473 partner): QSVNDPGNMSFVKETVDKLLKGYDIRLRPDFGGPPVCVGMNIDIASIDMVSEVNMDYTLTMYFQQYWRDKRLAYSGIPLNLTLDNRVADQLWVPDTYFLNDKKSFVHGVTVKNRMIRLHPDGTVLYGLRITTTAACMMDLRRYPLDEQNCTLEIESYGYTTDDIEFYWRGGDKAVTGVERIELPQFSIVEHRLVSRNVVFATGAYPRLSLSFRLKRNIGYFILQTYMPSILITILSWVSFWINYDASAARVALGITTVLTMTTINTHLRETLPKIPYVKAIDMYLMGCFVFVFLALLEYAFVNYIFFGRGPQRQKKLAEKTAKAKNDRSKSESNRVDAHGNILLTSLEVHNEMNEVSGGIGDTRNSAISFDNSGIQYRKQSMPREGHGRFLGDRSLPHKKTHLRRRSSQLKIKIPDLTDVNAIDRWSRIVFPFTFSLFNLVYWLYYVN
T3 sequence (P18507 40-475): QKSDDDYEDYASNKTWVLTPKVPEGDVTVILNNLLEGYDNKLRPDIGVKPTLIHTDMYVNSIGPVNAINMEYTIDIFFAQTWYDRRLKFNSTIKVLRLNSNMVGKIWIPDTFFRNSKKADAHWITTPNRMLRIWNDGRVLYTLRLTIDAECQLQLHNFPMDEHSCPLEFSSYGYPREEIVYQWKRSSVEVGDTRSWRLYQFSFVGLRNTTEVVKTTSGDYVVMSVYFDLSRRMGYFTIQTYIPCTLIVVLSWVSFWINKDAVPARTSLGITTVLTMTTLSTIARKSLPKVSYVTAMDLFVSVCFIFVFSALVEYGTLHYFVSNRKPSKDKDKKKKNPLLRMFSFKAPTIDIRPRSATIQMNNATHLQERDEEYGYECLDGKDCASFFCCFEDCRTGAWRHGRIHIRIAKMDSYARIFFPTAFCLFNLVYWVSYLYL
T2 sequence (P47869 29-451): as the sequence (P47869 29-451) above
T2 sequence (P28472 26-473 partner): as the sequence (P28472 26-473 partner) above
T2 sequence (P18507 40-475): as the sequence (P18507 40-475) above
T1 sequence (P14867 28-456): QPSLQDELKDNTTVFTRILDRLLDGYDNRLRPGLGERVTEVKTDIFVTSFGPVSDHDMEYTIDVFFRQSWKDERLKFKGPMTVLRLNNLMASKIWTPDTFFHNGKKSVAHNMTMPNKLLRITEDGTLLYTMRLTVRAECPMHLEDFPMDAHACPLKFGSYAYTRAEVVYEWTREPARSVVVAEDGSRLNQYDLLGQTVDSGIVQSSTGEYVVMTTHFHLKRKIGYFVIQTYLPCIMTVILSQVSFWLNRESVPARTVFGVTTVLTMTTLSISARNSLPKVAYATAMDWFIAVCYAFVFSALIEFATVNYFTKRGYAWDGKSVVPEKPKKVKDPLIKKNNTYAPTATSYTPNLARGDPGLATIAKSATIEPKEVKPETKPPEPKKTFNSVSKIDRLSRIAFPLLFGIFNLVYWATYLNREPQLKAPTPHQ
T1 sequence (P47870 25-512 partner limits assumed): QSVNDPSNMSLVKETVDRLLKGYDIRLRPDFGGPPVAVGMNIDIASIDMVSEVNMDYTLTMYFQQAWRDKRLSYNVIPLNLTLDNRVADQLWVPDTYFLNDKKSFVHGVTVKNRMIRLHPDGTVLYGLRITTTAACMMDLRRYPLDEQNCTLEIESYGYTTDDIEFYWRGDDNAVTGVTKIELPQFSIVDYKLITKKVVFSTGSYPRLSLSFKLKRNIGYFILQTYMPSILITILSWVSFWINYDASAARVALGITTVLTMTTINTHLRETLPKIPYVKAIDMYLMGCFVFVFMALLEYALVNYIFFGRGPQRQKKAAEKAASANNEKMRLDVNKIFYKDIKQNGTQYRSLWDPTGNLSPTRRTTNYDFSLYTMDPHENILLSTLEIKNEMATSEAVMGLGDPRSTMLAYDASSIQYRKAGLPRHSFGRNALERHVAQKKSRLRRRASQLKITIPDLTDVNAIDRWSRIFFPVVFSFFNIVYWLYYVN
T1 sequence (P18507 40-475): as the sequence (P18507 40-475) above

For the compound `COc1cccc(F)c1-c1cccc2c(N)c3c(nc12)CN([C@H]1C[C@@H](C)C1)C3=O`, the “Relative Potentiation for GABAA1” value in test [1] was 0.054. Further, the “Relative Potentiation for GABAA2” value in test [2] stood at 0.39. The same compound gave a pKi in test [3] of 9.02.

Take `COc1ncccc1-c1cccc2c(N)c3c(nc12)CN([C@H]1C[C@@H](C)C1)C3=O`: the “Relative Potentiation for GABAA1” value in test [1] was found to be 0.085. For the same compound, the “Relative Potentiation for GABAA2” value in test [2] was 0.51. Also, in test [3], the negative-log Ki (pKi) was 8.89.

Regarding `COc1ccc(-c2cccc3c(N)c4c(nc23)CN([C@H]2C[C@@H](C)C2)C4=O)c(C)n1`, the “Relative Potentiation for GABAA1” value in test [1] worked out at 0.14. Besides, in test [2], the “Relative Potentiation for GABAA2” value is 0.3. In test [3], this compound gave a pKi of 8.33.

Turning to `COc1ncccc1-c1c(F)ccc2c(N)c3c(nc12)CN(C1CCOC1)C3=O` (stereo not shown), the “Relative Potentiation for GABAA1” value in test [1] turned out to be 0.097. The “Relative Potentiation for GABAA2” value in test [2] was 0.32. Moreover, in test [3], the pKi is 7.73.

For `COc1cccc(F)c1-c1cccc2c(N)c3c(nc12)CN(C1CC1)C3=O` (atropisomer, axis not shown; (P)), the “Relative Potentiation for GABAA1” value in test [1] is −0.018. Also, the “Relative Potentiation for GABAA2” value in test [2] was found to be 0.38. Further, in test [3], the pKi is 8.44.

Take `COc1cccc(F)c1-c1cccc2c(N)c3c(nc12)CN(C1CCC1)C3=O` (single isomer, unassigned) [Example 129, 9-Amino-2-cyclobutyl-5-((P)-2-fluoro-6-methoxyphenyl)-2,3-dihydropyrrolo[3,4-b]quinolin-1-one]: in test [1] (setting [4]), the “Relative Potentiation for GABAA1” value is recorded as −0.11. Besides, the “Relative Potentiation for GABAA2” value in test [2] (setting [4]) was found to be 0.23. In test [3], this compound had a negative-log Ki (pKi) of 9.54.

On to `COc1cccc(F)c1-c1cccc2c(N)c3c(nc12)CN(C1CCC1)C3=O` (single isomer, unassigned) [Example 130, 9-Amino-2-cyclobutyl-5-((M)-2-fluoro-6-methoxyphenyl)-2,3-dihydropyrrolo[3,4-b]quinolin-1-one], for which, in test [1] (setting [5]), the “Relative Potentiation for GABAA1” value was found to be 0.002. For the same compound, the “Relative Potentiation for GABAA2” value in test [2] (setting [5]) is reported as 0.23. Besides, the negative logarithm of the Ki (pKi) in test [3] was 8.04.

On to `COc1cccc(C#N)c1-c1cccc2c(N)c3c(nc12)CN(C1CCC1)C3=O` [2-(9-Amino-2-cyclobutyl-1-oxo-2,3-dihydro-1H-pyrrolo[3,4-b]quinolin-5-yl)-3-methoxybenzonitrile], for which the “Relative Potentiation for GABAA1” value in test [1] is reported as −0.043. Also, in test [2], the “Relative Potentiation for GABAA2” value turned out to be 0.21. The compound further had a negative-log Ki (pKi) in test [3] of 8.26.

Take `N#Cc1ccc(F)cc1-c1cccc2c(N)c3c(nc12)CN(C1CCC1)C3=O` [2-(9-Amino-2-cyclobutyl-1-oxo-2,3-dihydro-1H-pyrrolo[3,4-b]quinolin-5-yl)-4-fluorobenzonitrile]: in test [1], the “Relative Potentiation for GABAA1” value is on record as −0.02. The “Relative Potentiation for GABAA2” value in test [2] stood at 0.21. This compound had a pKi in test [3] of 8.21.

`N#Cc1cc(F)ccc1-c1cccc2c(N)c3c(nc12)CN(C1CCC1)C3=O` [2-(9-Amino-2-cyclobutyl-1-oxo-2,3-dihydro-1H-pyrrolo[3,4-b]quinolin-5-yl)-5-fluorobenzonitrile]: the “Relative Potentiation for GABAA1” value in test [1] is −0.024. Besides, the “Relative Potentiation for GABAA2” value in test [2] was 0.11. The compound also gave a pKi in test [3] of 8.38.

Turning to `COc1cccc(-c2cccc3c(N)c4c(nc23)CN(C2CCC2)C4=O)c1C#N` [2-(9-Amino-2-cyclobutyl-1-oxo-2,3-dihydro-1H-pyrrolo[3,4-b]quinolin-5-yl)-6-methoxybenzonitrile], the “Relative Potentiation for GABAA1” value in test [1] is on record as −0.016. In addition, the “Relative Potentiation for GABAA2” value in test [2] turned out to be 0.18. In test [3], this compound gave a pKi of 9.04.

Take `N#Cc1ccccc1-c1cccc2c(N)c3c(nc12)CN(C1CCCC1)C3=O` [2-(9-Amino-2-cyclopentyl-1-oxo-2,3-dihydro-1H-pyrrolo[3,4-b]quinolin-5-yl)-benzonitrile]: the “Relative Potentiation for GABAA1” value in test [1] stood at 0.062. Further, the “Relative Potentiation for GABAA2” value in test [2] is 0.27. The same compound had a negative logarithm of the Ki (pKi) in test [3] of 8.24.

On to `N#Cc1ccccc1-c1cccc2c(N)c3c(nc12)CN(C1CC1)C3=O` [2-(9-Amino-2-cyclopropyl-1-oxo-2,3-dihydro-1H-pyrrolo[3,4-b]quinolin-5-yl)-benzonitrile], for which the “Relative Potentiation for GABAA1” value in test [1] is recorded as −0.064. Further, the “Relative Potentiation for GABAA2” value in test [2] is 0.087. In test [3], this compound gave a negative logarithm of the Ki (pKi) of 7.79.

`COc1ccc(-c2cccc3c(N)c4c(nc23)CN(C)C4=O)c(OC)n1` [9-Amino-5-(2,6-dimethoxypyridin-3-yl)-2-methyl-2,3-dihydropyrrolo[3,4-b]quinolin-1-one]: the “Relative Potentiation for GABAA2” value in test [2] is reported as 0.19. In test [3], the pKi is 6.54.

As to `CCCN1Cc2nc3c(-c4cnc(OC)c(C)c4)cccc3c(N)c2C1=O` [9-amino-5-(6-methoxy-5-methylpyridin-3-yl)-2-propyl-2,3-dihydro-1H-pyrrolo[3,4-b]quinolin-1-one], the “Relative Potentiation for GABAA1” value in test [1] turned out to be 0.32. The compound further gave a pKi in test [3] of 7.44.

Take `CCCN1Cc2nc3c(-c4ccoc4)cccc3c(N)c2C1=O` [9-amino-5-(furan-3-yl)-2-propyl-2,3-dihydro-1H-pyrrolo[3,4-b]quinolin-1-one]: the “Relative Potentiation for GABAA1” value in test [1] turned out to be 0.13. This compound also had a negative-log Ki (pKi) in test [3] of 7.42.

As to `CCCN1Cc2nc3c(-c4ccccc4)cccc3c(N)c2C1=O` [9-amino-5-phenyl-2-propyl-2,3-dihydro-1H-pyrrolo[3,4-b]quinolin-1-one], the “Relative Potentiation for GABAA1” value in test [1] was determined as 0.51. For the same compound, the pKi in test [3] was 7.36.

`CCN1Cc2nc3c(-c4ccc(OC)nc4OC)cccc3c(N)c2C1=O` [Example 27, 9-Amino-5-(2,6-dimethoxypyridin-3-yl)-2-ethyl-2,3-dihydropyrrolo[3,4-b]quinolin-1-one]: the “Relative Potentiation for GABAA2” value in test [2] came to 0.18. In addition, the pKi in test [3] was 7.30.

In the case of `CCCN1Cc2nc3c(-c4cccnc4)cccc3c(N)c2C1=O` [Example 40, 9-Amino-2-propyl-5-pyridin-3-yl-2,3-dihydropyrrolo[3,4-b]quinolin-1-one], in test [2], the “Relative Potentiation for GABAA2” value is 0.27. The compound further had a negative-log Ki (pKi) in test [3] of 7.33.

Take `CCCCN1Cc2nc3c(-c4ccc(OC)nc4OC)cccc3c(N)c2C1=O` [Example 43, 9-Amino-2-butyl-5-(2,6-dimethoxypyridin-3-yl)-2,3-dihydropyrrolo[3,4-b]quinolin-1-one]: in test [2], the “Relative Potentiation for GABAA2” value was found to be 0.37. In test [3], the negative logarithm of the Ki (pKi) was 7.35.

Take `COc1cccc(C#N)c1-c1cccc2c(N)c3c(nc12)CN(C1CC1)C3=O` [Example 139, 2-(9-Amino-2-cyclopropyl-1-oxo-2,3-dihydro-1H-pyrrolo[3,4-b]quinolin-5-yl)-3-methoxybenzonitrile]: in test [1], the “Relative Potentiation for GABAA1” value is recorded as −0.078. Moreover, in test [2], the “Relative Potentiation for GABAA2” value worked out at 0.15.

For the origin of these results see patent publication US20080318943A1, “Compounds and Uses Thereof - 848” (ASTRAZENECA AB, priority 2007, published 2008).
